In patent US12398121B2 (Nuvation Bio Inc., priority 2018, dated 2025):

What follows are compounds tested against T1, ER Alpha-LBD (GST) (Homo sapiens, UniProt P03372) (assay: ER binding assay (LanthaScreen TR-FRET ER Alpha Competitive Binding Assay)). Conditions: Fluormone ES2 Green tracer, read-out: ERα Ki.
T1 construct: purchased Thermo Fisher
T1 sequence (P03372 311-547 limits assumed): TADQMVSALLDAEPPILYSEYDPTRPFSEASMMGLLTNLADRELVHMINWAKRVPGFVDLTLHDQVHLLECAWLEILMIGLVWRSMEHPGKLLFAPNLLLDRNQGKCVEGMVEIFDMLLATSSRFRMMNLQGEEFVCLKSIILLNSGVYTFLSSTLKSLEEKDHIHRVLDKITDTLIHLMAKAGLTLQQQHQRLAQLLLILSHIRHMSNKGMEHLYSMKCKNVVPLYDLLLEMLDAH
Protocol: Cells were plated at varying density in the respective growth medium in 96 well plates. 24 hr later, cells were treated, in triplicate or quadruplicate, with test articles prepared in a range of concentrations by series dilution of DMSO stock solutions in growth medium and incubated for three to seven days. The number of viable 22RV1 and HT-29 cells was measured using CellTiter Glo assay (CTG, Promega, Madison, WI) after three days of treatment. The other types of cancer cells were re-treated at three or four days and the number of viable cells was measured using CTG assay after a total treatment time of six or seven days. Cell viability data were plotted using GraphPad Prism (GraphPad Software, Inc., San Diego, CA). In addition, a nonlinear regression model with a sigmoidal dose response and variable slope within GraphPad Prism was used to calculate the IC50 value of individual test articles. Additional cell proliferation assays: Other cancer cell lines are tested in a cell proliferation assay. For example, SK-OV-3 or OVCAR3 ovarian cancer cells are tested. Cells are cultured in medium recommended by the supplier (e.g., ATCC or JCRB Cell Bank), at 37° C. in a 5% CO2 environment. For the proliferation assay, cells are plated in the growth medium in 96 well plates. Seeding density is adjusted according to the cell type. […] The number of viable cells is measured using CellTiter Glo assay (CTG, Promega, Madison, WI) or similar. […] ER binding assay: ERα binding was assessed by the LanthaScreen® TR-FRET ER Alpha Competitive Binding Assay at Thermo Fisher. […] Competitive binding to the ER Alpha-LBD (GST) was detected by a test compound's ability to displace a fluorescent ligand (Fluormone™ ES2 Green tracer) from the ER Alpha-LBD (GST), which results in a loss of FRET signal between the Tb-anti-GST antibody and the tracer. […] After an incubation period at room temperature, the TR-FRET ratio of 520:495 emissions were calculated and was used to determine the IC50 from a dose response curve of the compound. […]
For `CN(CCCCCC(=O)N1CCN(C(=O)c2cc(Cc3n[nH]c(=O)c4ccccc34)ccc2F)CC1)CCOc1ccc(C(=O)c2c(-c3ccc(O)cc3)sc3cc(O)ccc23)cc1` [Compound 2.4, 4-(4-fluoro-3-(4-(6-((2-(4-(6-hydroxy-2-(4-hydroxyphenyl)benzo[b]thiophene-3-carbonyl)phenoxy)ethyl)(methyl)amino)hexanoyl)piperazine-1-carbonyl)benzyl)phthalazin-1(2H)-one], the Ki was 5 nM. Compound `O=C(c1ccc(OCCN2CCN(C(=O)c3cc(Cc4n[nH]c(=O)c5ccccc45)ccc3F)CC2)cc1)c1c(-c2ccc(O)cc2)sc2cc(O)ccc12` [Compound 2.13, 4-(4-fluoro-3-(4-(2-(4-(6-hydroxy-2-(4-hydroxyphenyl)benzo[b]thiophene-3-carbonyl)phenoxy)ethyl)piperazine-1-carbonyl)benzyl)phthalazin-1(2H)-one] has a Ki of 3.3 nM. `CCC(=C(c1ccc(O)cc1)c1ccc(OCCN2CCN(C(=O)c3cc(Cc4n[nH]c(=O)c5ccccc45)ccc3F)CC2)cc1)c1ccccc1` [Compound 2.14, 4-(4-fluoro-3-(4-(2-(4-(1-(4-hydroxyphenyl)-2-phenylbut-1-enyl)phenoxy)ethyl)piperazine-1-carbonyl)benzyl)pthalazin-1(2H)-one] gave a Ki of 3.5 nM.
